From publication PMC2248166, “Quantitative peptide binding motifs for 19 human and mouse MHC class I molecules derived using positional scanning combinatorial peptide libraries” (Immunome Research, 2008)

Legend:
HLA A*3201 = HLA A*3201 (Homo sapiens, UniProt P04439, A270S/D101S/D185E/E176V/E277Q/F133L/G103R/G107R/G231S/H175R/I121M/I218V/I322F/K168Q/L105A/L300P/L318F/M331R/P208A/P217A/Q94H/R106L/R138Q/S129P/T104I/T323A/T345S/V100E/V321M/V358M); test: biochemical; format: binding
HLA B*2705 = HLA B*2705 (Homo sapiens, UniProt P01889, D138H/D201E/E176V/E204Q/G107R/H137Y/K202T/N104T/N87E/Q56L/Q94K/R106L/R155S/R180L/S101D/S121N/S48T/Y140D/Y33H/Y91C); format: binding; conditions: positional scanning combinatorial 9-mer library; normalized to 1.0 for the best residue at each position
HLA A*3001 = HLA A*3001 (Homo sapiens, UniProt P04439, D140H/D185E/E176W/F33S/G80R/H175R/K168Q/R138E/R41S); test: biochemical; format: binding
HLA A*6802 = HLA A*6802 (Homo sapiens, UniProt P04439, A269V/D140Y/D185E/E176V/E277Q/E87N/F33Y/G231S/I121R/I166T/I218V/L180W/L300P/L318F/N151K/P208A/P217A/Q86R/R138H/R169H/S129P/T345S/V36M); format: binding
H-2 D^d = H-2 D^d (Mus musculus, UniProt P01900); format: binding
Sequence of H-2 D^d (P01900 whole entry, looked up): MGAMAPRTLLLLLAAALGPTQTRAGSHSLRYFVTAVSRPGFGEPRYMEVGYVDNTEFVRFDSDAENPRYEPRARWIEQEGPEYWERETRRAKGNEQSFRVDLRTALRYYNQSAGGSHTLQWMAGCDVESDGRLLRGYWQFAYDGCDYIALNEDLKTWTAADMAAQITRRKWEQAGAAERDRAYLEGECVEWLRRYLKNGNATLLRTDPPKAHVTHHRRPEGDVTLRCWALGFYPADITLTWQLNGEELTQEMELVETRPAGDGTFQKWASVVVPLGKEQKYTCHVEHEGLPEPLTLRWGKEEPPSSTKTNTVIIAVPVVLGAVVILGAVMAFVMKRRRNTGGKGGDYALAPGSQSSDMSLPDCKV

HLA B*0702 = HLA B*0702 (Homo sapiens, UniProt P01889); format: binding; conditions: positional scanning combinatorial 9-mer library; normalized to 1.0 for the best residue at each position
HLA B*5801 = HLA B*5801 (Homo sapiens, UniProt P01889, A329T/C349S/D201E/D98Y/E176V/E187L/E204Q/E69T/G107R/I218V/I90N/K202T/L105A/L119I/N104I/N87E/Q89R/Q94S/R106L/R155S/R180L/R86G/S101N/S121R/S35A/S48A/T118I/V127L/V306I/V36M/Y140S/Y91M); format: binding
HLA B*3501 = HLA B*3501 (Homo sapiens, UniProt P01889, A329T/A93T/A95T/C349S/D201E/D98Y/E176V/E187L/E204Q/E69T/I218V/K202T/L119I/Q94N/R155S/R180L/S121R/S35A/S48A/T118I/V127L/V306I/V36M/Y140S/Y91F); format: binding
H-2 K^k = H-2 K^k (Mus musculus, UniProt P04223); format: binding
Sequence of H-2 K^k (P01887 21-119): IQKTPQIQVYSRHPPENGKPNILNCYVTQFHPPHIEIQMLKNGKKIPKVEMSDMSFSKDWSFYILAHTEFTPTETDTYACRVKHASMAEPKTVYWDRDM
Sequence of H-2 K^k (P04223 22-369): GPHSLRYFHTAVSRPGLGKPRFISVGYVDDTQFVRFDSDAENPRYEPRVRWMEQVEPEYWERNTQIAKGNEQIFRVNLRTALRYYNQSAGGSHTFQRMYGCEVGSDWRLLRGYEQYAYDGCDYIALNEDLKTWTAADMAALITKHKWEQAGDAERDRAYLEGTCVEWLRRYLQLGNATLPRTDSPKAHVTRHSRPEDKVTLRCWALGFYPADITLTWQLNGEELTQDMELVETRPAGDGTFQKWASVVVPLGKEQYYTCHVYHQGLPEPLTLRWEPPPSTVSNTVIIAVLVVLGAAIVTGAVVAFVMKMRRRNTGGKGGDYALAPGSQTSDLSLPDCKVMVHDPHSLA

H-2 D^b = H-2 D^b (Mus musculus, UniProt P01899); format: binding
Sequence of H-2 D^b (P01887 21-119): as the sequence (P01887 21-119) above
Sequence of H-2 D^b (P01899 25-362): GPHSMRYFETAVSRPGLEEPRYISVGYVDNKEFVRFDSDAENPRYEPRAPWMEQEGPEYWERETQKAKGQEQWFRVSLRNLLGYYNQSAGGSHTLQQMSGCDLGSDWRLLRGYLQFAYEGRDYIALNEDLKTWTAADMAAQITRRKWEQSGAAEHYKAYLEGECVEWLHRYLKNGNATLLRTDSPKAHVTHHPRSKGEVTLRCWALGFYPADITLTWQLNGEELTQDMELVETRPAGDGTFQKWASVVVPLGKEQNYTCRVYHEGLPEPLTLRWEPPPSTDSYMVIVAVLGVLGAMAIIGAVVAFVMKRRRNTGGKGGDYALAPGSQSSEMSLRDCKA

HLA B*0801 = HLA B*0801 (Homo sapiens, UniProt P01889, A93T/A95T/D138N/E176V/E187T/K202T/Q94N/R180D/S35A/V36M/Y33D/Y91F); test: biochemical; format: binding
HLA B*5301 = HLA B*5301 (Homo sapiens, UniProt P01889, A329T/A93T/A95T/C349S/D201E/D98Y/E176V/E187L/E204Q/E69T/G107R/I218V/K202T/L105A/L119I/N104I/Q94N/R106L/R155S/R180L/S101N/S121R/S35A/S48A/T118I/V127L/V306I/V36M/Y140S/Y91F); format: binding
HLA B*5802 = HLA B*5802 (Homo sapiens, UniProt P01889, A329T/C349S/D201E/D98Y/E176V/E187L/E204Q/E69T/G107R/I218V/I90N/K202T/L105A/N104I/N87E/Q89R/Q94S/R106L/R155S/R180L/R86G/S101N/S121W/S35A/S48A/V127L/V306I/V36M/Y140S/Y91M); format: binding
HLA B*5401 = HLA B*5401 (Homo sapiens, UniProt P01889, A329T/C349S/D138N/D201E/E176V/E187T/E204Q/E69G/I76V/K202T/L119W/R155S/R180L/S121T/S35A/S48A/V127L/V306I/V36M/Y140L); format: binding
HLA B*5101 = HLA B*5101 (Homo sapiens, UniProt P01889, A329T/A93T/A95T/C349S/D138N/D201E/D98Y/E187L/E204Q/E69T/G107R/I218V/K202T/L105A/L119W/N104I/Q94N/R106L/R155S/R180L/S101N/S121T/S35A/S48A/V306I/V36M/Y195H/Y91F); format: binding
HLA A*0201 = HLA A*0201 (Homo sapiens, UniProt P04439, D140Y/D185E/D98H/E176V/E277Q/G131W/G231S/I119V/I121R/I166T/I218V/L300P/L318F/N151K/N90K/P208A/P217A/Q86G/Q94H/R138H/R169H/T345S); conditions: positional scanning combinatorial 9-mer library; normalized to 1.0 for the best residue at each position
HLA B*1503 = HLA B*1503 (Homo sapiens, UniProt P01889, A329T/A93T/A95T/C349S/D201E/D98Y/E187L/E204Q/K202T/N87E/Q94N/R155S/R180L/S121R/S35A/V306I/V36M/Y140S/Y91S); test: biochemical; format: binding
HLA B*1501 = HLA B*1501 (Homo sapiens, UniProt P01889, A329T/A93T/A95T/C349S/D201E/D98Y/E187L/E204Q/E69M/E70A/K202T/N87E/Q94N/R155S/R180W/S121R/S35A/S48A/V306I/V36M/Y140S/Y91S); test: biochemical; format: binding

## XXYXXXXXX [3064.0060]
HLA A*3201
  Normalized average relative binding affinity (ARB), HLA A*3201: 1.0
HLA B*2705
  Normalized average relative binding affinity (ARB), HLA B*2705: 0.40
HLA A*3001
  Normalized average relative binding affinity (ARB), HLA A*3001: 0.016
HLA A*6802
  Normalized average relative binding affinity (ARB), HLA A*6802: 0.26
H-2 D^d
  Normalized average relative binding affinity (ARB), H-2 Dd: 0.0028
HLA B*0702
  Normalized average relative binding affinity (ARB), HLA B*0702: 0.061
HLA B*5801
  Normalized average relative binding affinity (ARB), HLA B*5801: 0.34
HLA B*3501
  Normalized average relative binding affinity (ARB), HLA B*3501: 0.29
H-2 K^k
  Normalized average relative binding affinity (ARB), H-2 Kk: 0.52
H-2 D^b
  Normalized average relative binding affinity (ARB), H-2 Db: 0.24
HLA B*0801
  Normalized average relative binding affinity (ARB), HLA B*0801: 0.13
HLA B*5301
  Normalized average relative binding affinity (ARB), HLA B*5301: 0.078
HLA B*5802
  Normalized average relative binding affinity (ARB), HLA B*5802: 0.72
HLA B*5401
  Normalized average relative binding affinity (ARB), HLA B*5401: 0.11
HLA B*5101
  Normalized average relative binding affinity (ARB), HLA B*5101: 0.38
HLA A*0201
  Normalized average relative binding affinity (ARB), HLA A*0201: 0.88
HLA B*1503
  Normalized average relative binding affinity (ARB), HLA B*1503: 0.44
HLA B*1501
  Normalized average relative binding affinity (ARB), HLA B*1501: 0.60

## XYXXXXXXX [3064.0040]
HLA A*3201
  Normalized average relative binding affinity (ARB), HLA A*3201: 0.032
HLA B*2705
  Normalized average relative binding affinity (ARB), HLA B*2705: 0.0026
HLA A*3001
  Normalized average relative binding affinity (ARB), HLA A*3001: 0.46
HLA A*6802
  Normalized average relative binding affinity (ARB), HLA A*6802: 0.017
H-2 D^d
  Normalized average relative binding affinity (ARB), H-2 Dd: 0.013
HLA B*0702
  Normalized average relative binding affinity (ARB), HLA B*0702: 0.0050
HLA B*5801
  Normalized average relative binding affinity (ARB), HLA B*5801: 0.029
HLA B*3501
  Normalized average relative binding affinity (ARB), HLA B*3501: 0.012
H-2 K^k
  Normalized average relative binding affinity (ARB), H-2 Kk: 0.0099
H-2 D^b
  Normalized average relative binding affinity (ARB), H-2 Db: 0.071
HLA B*0801
  Normalized average relative binding affinity (ARB), HLA B*0801: 0.066
HLA B*5301
  Normalized average relative binding affinity (ARB), HLA B*5301: 0.0053
HLA B*5802
  Normalized average relative binding affinity (ARB), HLA B*5802: 0.030
HLA B*5401
  Normalized average relative binding affinity (ARB), HLA B*5401: 0.0039
HLA B*5101
  Normalized average relative binding affinity (ARB), HLA B*5101: 0.053
HLA A*0201
  Normalized average relative binding affinity (ARB), HLA A*0201: 0.0078
HLA B*1503
  Normalized average relative binding affinity (ARB), HLA B*1503: 0.017
HLA B*1501
  Normalized average relative binding affinity (ARB), HLA B*1501: 0.028

## YXXXXXXXX [3064.0020]
HLA A*3201
  Normalized average relative binding affinity (ARB), HLA A*3201: 0.12
HLA B*2705
  Normalized average relative binding affinity (ARB), HLA B*2705: 0.85
HLA A*3001
  Normalized average relative binding affinity (ARB), HLA A*3001: 0.064
HLA A*6802
  Normalized average relative binding affinity (ARB), HLA A*6802: 0.24
H-2 D^d
  Normalized average relative binding affinity (ARB), H-2 Dd: 0.41
HLA B*0702
  Normalized average relative binding affinity (ARB), HLA B*0702: 0.25
HLA B*5801
  Normalized average relative binding affinity (ARB), HLA B*5801: 0.20
HLA B*3501
  Normalized average relative binding affinity (ARB), HLA B*3501: 0.19
H-2 K^k
  Normalized average relative binding affinity (ARB), H-2 Kk: 0.63
H-2 D^b
  Normalized average relative binding affinity (ARB), H-2 Db: 0.57
HLA B*0801
  Normalized average relative binding affinity (ARB), HLA B*0801: 0.24
HLA B*5301
  Normalized average relative binding affinity (ARB), HLA B*5301: 0.36
HLA B*5802
  Normalized average relative binding affinity (ARB), HLA B*5802: 0.46
HLA B*5401
  Normalized average relative binding affinity (ARB), HLA B*5401: 0.12
HLA B*5101
  Normalized average relative binding affinity (ARB), HLA B*5101: 1.0
HLA A*0201
  Normalized average relative binding affinity (ARB), HLA A*0201: 0.11
HLA B*1503
  Normalized average relative binding affinity (ARB), HLA B*1503: 0.34
HLA B*1501
  Normalized average relative binding affinity (ARB), HLA B*1501: 0.33
